In patent US12486271B2, “Solid forms of a toll-like receptor modulator” (GILEAD SCIENCES, INC., priority 2014, dated 2025):

Columns and labels:
[1] = Variable temperature XRD (VT XRD) experiment: form stability on cooling; type: physicochemical; conditions: cooled to 25° C. after generation by heating
From the text: X-ray Powder Diffraction (XRPD). The Rigaku Smart-Lab® X-ray diffraction system was configured for reflection BraggBrentano geometry using a line source X-ray beam. The x-ray source is a Cu Long Fine Focus tube that was operated at 40 kV and 44 mA. That source provides an incident beam profile at the sample that changes from a narrow line at high angles to a broad rectangle at low angles. Beam conditioning slits were used on the line X-ray source to ensure that the maximum beam size is less than 10 mm both along the line and normal to the line. The Bragg-Brentano geometry is a para-focusing geometry controlled by passive divergence and receiving slits with the sample itself acting as the focusing component for the optics. The inherent resolution of Bragg-Brentano geometry is governed in part by the diffractometer radius and the width of the receiving slit used. Typically, the Rigaku Smart-Lab is operated to give peak widths of 0.1°2θ or less. The axial divergence of the X-ray beam is controlled by 5.0-degree Soller slits in both the incident and diffracted beam paths. Powder samples were prepared in a low background Si holder using light manual pressure to keep the sample surfaces flat and level with the reference surface of the sample holder. The single-crystal, Si, low-background holder has a small circular recess (7 mm diameter and about 1 mm depth) that holds between 5 and 10 mg of powdered material. Each sample was analyzed from 2 to 40°2θ using a continuous scan of 3°2θ per minute with an effective step size of 0.02°2θ. Form III was generated at 138° C. from Form I in a variable temperature XRD (VT XRD) experiment. […] Form III is characterized by the X-ray powder diffraction pattern in FIG. 9, and the differential scanning calorimetry plot in FIG. 11 showing endotherms at about 181 and 271° C. (decomposition). Form IV was generated between 95 and 110° C. from Form II in a variable temperature XRD experiment. […] is characterized by the X-ray powder diffraction pattern in FIG. 13.

[2] = Competition slurry experiment of Form I and Form III in methanol; type: physicochemical; conditions: 10 mg of each of Form I and Form III in methanol
HCV = conditions: once daily 7-day treatment, HCV infected patients; cited from earlier work

| Compound | Solid form stability when cooled to 25° C. in variable temperature XRD [1] | Solid form stability when cooled to 25° C. in variable temperature XRD ([1]; listed as Compound I Form III) | Time for conversion of Form III back to Form I in competition slurry [2] [weeks] | Plasma virus concentrations (HCV) |
| --- | --- | --- | --- | --- |
| CCCCOc1nc(N)c2c(n1)N(Cc1cccc(CN3CCCC3)c1)CC(=O)N2 [Form III, 4-amino-2-butoxy-8-(3-(pyrrolidin-1-ylmethyl)benzyl)-7,8-dihydropteridin-6(5H)-one] | stable when cooled to 25 °C and does not convert back to Form I | remains as Form III | ≤ 2 | – |
| CCCCOc1nc(N)c2c(n1)N(Cc1cccc(CN3CCCC3)c1)CC(=O)N2 [Form IV, 4-amino-2-butoxy-8-(3-(pyrrolidin-1-ylmethyl)benzyl)-7,8-dihydropteridin-6(5H)-one] | converts back to Form II when cooled to 25 °C | – | – | – |
| Nc1nc(=O)c2sc(=O)n([C@@H]3O[C@H](CO)[C@@H](O)[C@H]3O)c2[nH]1 [isatoribine] | – | – | – | reduces plasma virus concentrations |
